How the values were obtained:
[1] = biological target: T1, vanilloid receptor 1 (VR1/TRPV1 receptor) (Homo sapiens, UniProt Q8NER1); test: FLIPR Ca2+ influx assay with CHO K1 cells transfected with the human VR1 gene, capsaicin stimulus; type: cell-based; details: Cap = capsaicin (100 nM), Ki from IC50 by Cheng-Prusoff, read-out: Ki (human being) [nM] Cap
T1 construct: expressed in transfected cells; host or cells: CHO K1 cells (ECACC), stably transfected
Protocol: Furthermore, preference may be given to compounds according to the invention of general formula (I) that cause a 50 percent displacement of capsaicin, which is present at a concentration of 100 nM, in a FLIPR assay with CHO K1 cells which were transfected with the human VR1 gene at a concentration of less than 2,000 nM, preferably less than 1,000 nM, particularly preferably less than 300 nM, most particularly preferably less than 100 nM, even more preferably less than 75 nM, additionally preferably less than 50 nM, most preferably less than 10 nM. In the process, the Ca^2+ influx is quantified in the FLIPR assay with the aid of a Ca^2+-sensitive dye (type Fluo-4, Molecular Probes Europe BV, Leiden, the Netherlands) in a fluorescent imaging plate reader (FLIPR, Molecular Devices, Sunnyvale, USA), as described hereinafter. The agonistic or antagonistic effect of the substances to be tested on the vanilloid receptor 1 (VR1) can also be determined using the following assay. In this assay, the influx of Ca^2+ through the channel is quantified with the aid of a Ca^2+-sensitive dye (type Fluo-4, Molecular Probes Europe BV, Leiden, the Netherlands) in a fluorescent imaging plate reader (FLIPR, Molecular Devices, Sunnyvale, USA). Chinese hamster ovary cells (CHO K1 cells, European Collection of Cell Cultures (ECACC) United Kingdom) are stably transfected with the VR1 gene. For functional testing, these cells are plated out on poly-D-lysine-coated black 96-well plates having a clear base (BD Biosciences, Heidelberg, Germany) at a density of 25,000 cells/well. The cells are incubated overnight at 37° C. and 5% CO2 in a culture medium (Ham's F12 nutrient mixture, 10% by volume of FCS (foetal calf serum), 18 μg/ml of L-proline). The next day the cells are incubated with Fluo-4 (Fluo-4 2 μM, 0.01% by volume of Pluronic F127, Molecular Probes in HBSS (Hank's buffered saline solution), Gibco Invitrogen GmbH, Karlsruhe, Germany) for 30 minutes at 37° C. Subsequently, the plates are washed three times with HBSS buffer and after further incubation for 15 minutes at RT used for Ca^2+ measurement in a FLIPR assay. The Ca^2+-dependent fluorescence is measured before and after the addition of the substances to be tested (λex wavelength=488 nm, λem=540 nm). Quantification is carried out by measuring the highest fluorescence intensity (FC, fluorescence counts) over time. The FLIPR protocol consists of 2 substance additions. First the compounds to be tested (10 μM) are pipetted onto the cells and the Ca^2+ influx is compared with the control (capsaicin 10 μM) (% activation based on the Ca^2+ signal after the addition of 10 μM of capsaicin). After 5 minutes' incubation, 100 nM of capsaicin are applied and the Ca^2+ influx is also determined. Desensitising agonists and antagonists led to suppression of the Ca^2+ influx. The % inhibition is calculated compared to the maximum achievable inhibition with 10 μM of capsaicin. Starting from the percentage displacement caused by different concentrations of the compounds to be tested of general formula I, IC50 inhibitory concentrations which cause a 50-percent displacement of capsaicin were calculated. K, values for the test substances were obtained by conversion by means of the Cheng-Prusoff equation (Cheng, Prusoff; Biochem. Pharmacol. 22, 3099-3108, 1973). The affinity of the compounds according to the invention for the vanilloid receptor 1 (VR1/TRPV1 receptor) was determined as described hereinbefore (pharmacological methods I and II respectively). The compounds according to the invention of the above-indicated formula (I) display outstanding affinity to the VR1/TRPV1 receptor (Table 1.).

[2] = biological target: T1, vanilloid receptor 1 (VR1/TRPV1 receptor); test: Functional test on vanilloid receptor 1, 45° C. stimulus (human); type: cell-based; details: for IC50: read-out: IC50 (human being) [nM], 45° C.

T1 sequence (Q8NER1 whole entry): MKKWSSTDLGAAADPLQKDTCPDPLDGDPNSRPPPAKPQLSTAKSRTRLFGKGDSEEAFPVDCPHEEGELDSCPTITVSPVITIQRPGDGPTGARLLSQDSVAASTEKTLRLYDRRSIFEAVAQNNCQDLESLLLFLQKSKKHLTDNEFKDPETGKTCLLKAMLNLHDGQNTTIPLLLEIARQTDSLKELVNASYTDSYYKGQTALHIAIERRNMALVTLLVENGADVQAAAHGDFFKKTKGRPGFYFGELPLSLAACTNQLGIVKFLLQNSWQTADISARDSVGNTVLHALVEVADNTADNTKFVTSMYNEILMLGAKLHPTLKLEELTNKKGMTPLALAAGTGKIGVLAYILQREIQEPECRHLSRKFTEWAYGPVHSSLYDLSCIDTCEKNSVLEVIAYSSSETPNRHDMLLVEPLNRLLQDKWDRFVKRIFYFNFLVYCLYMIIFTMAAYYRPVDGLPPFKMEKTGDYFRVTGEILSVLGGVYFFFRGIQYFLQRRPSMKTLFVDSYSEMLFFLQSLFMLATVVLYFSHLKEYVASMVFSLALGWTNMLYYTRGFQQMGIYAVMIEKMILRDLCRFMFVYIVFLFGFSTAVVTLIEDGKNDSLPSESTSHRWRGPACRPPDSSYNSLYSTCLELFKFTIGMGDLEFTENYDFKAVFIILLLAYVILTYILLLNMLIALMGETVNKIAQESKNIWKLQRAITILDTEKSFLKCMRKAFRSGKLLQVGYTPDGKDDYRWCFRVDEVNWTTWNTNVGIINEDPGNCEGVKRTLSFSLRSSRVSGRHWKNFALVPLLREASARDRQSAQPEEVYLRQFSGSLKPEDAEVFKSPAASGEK

Row | Compound | Ki [1] | inhibition at 2.5 µM ([2]; @ 2.5 μM compound, read-out: inhibition (as a percentage), human being, 45° C.) | IC50 [2]
1 | CC(C(=O)NCc1cc(C(C)(C)C)nn1-c1cccc(Cl)c1)c1cn(C)c2ccccc12 (stereo not shown) [Example 2, N-((3-tert-butyl-1-(3-chlorophenyl)-1H-pyrazol-5-yl)methyl)-2-(1-methyl-1H-indol-3-yl)propanamide] | 33.6 nM |  | 
2 | Cc1c(C(F)(F)F)nn(-c2cccc(Cl)c2)c1CNC(=O)C(C)c1cn(C)c2ccc(O)cc12 (stereo not shown) [Example 7, N-((1-(3-chlorophenyl)-4-methyl-3-(trifluoromethyl)-1H-pyrazol-5-yl)methyl)-2-(5-hydroxy-1-methyl-1H-indol-3-yl)propanamide] | 0.4 nM | 36% | 
3 | COc1ccc2c(c1)c(C(C)C(=O)NCc1cc(C(C)(C)C)nn1-c1cccc(Cl)c1)cn2C (stereo not shown) [Example 14, N-((3-tert-butyl-1-(3-chlorophenyl)-1H-pyrazol-5-yl)methyl)-2-(5-methoxy-1-methyl-1H-indol-3-yl)propanamide] | 48.1 nM |  | 
4 | CC(C(=O)NCc1cc(C2CC2)nn1-c1cccc(Cl)c1)c1cn(C)c2ccc(O)cc12 (stereo not shown) [Example 12, N-((1-(3-chlorophenyl)-3-cyclopropyl-1H-pyrazol-5-yl)methyl)-2-(5-hydroxy-1-methyl-1H-indol-3-yl)propanamide] | 1.1 nM |  | 95.8 nM
5 | Cn1cc(CC(=O)NCc2nc(C(C)(C)C)nn2-c2cccc(Cl)c2)c2cc(O)ccc21 [Example 18, N-((3-tert-butyl-1-(3-chlorophenyl)-1H-1,2,4-triazol-5-yl)methyl)-2-(5-hydroxy-1-methyl-1H-indol-3-yl)acetamide] | 70.9 nM |  | 
6 | CC(C(=O)NCc1cc(C(F)(F)F)nn1-c1cccc(Cl)c1)c1cn(C)c2ccccc12 (stereo not shown) [Example 8, N-((1-(3-chlorophenyl)-3-(trifluoromethyl)-1H-pyrazol-5-yl)methyl)-2-(1-methyl-1H-indol-3-yl)propanamide] | 6.4 nM |  | 924 nM
7 | COc1ccc2c(c1)c(CC(=O)NCc1cc(C(C)(C)C)nn1-c1cccc(Cl)c1)cn2C [Example 13, N-((3-tert-butyl-1-(3-chlorophenyl)-1H-pyrazol-5-yl)methyl)-2-(5-methoxy-1-methyl-1H-indol-3-yl)acetamide] | 33.3 nM |  | 
8 | N-((1-cyclopentyl-3-(trifluoromethyl)-1H-pyrazol-5-yl)methyl)-2-(5-hydroxy-1-methyl-1H-indol-3-yl)propanamide [Example 4] | 4.8 nM |  | 92 nM
9 | CC(C(=O)NCc1cc(C(C)(C)C)nn1-c1ccc(F)c(Cl)c1)c1cn(C)c2ccc(O)cc12 (stereo not shown) [Example 11, N-((3-tert-butyl-1-(3-chloro-4-fluorophenyl)-1H-pyrazol-5-yl)methyl)-2-(5-hydroxy-1-methyl-1H-indol-3-yl)propanamide] | 0.7 nM |  | 39 nM
10 | CC(C(=O)NCc1cc(C(F)(F)F)nn1-c1ccccc1)c1cn(C)c2ccccc12 (stereo not shown) [Example 1, 2-(1-methyl-1H-indol-3-yl)-N-((1-phenyl-3-(trifluoromethyl)-1H-pyrazol-5-yl)methyl)propanamide] | 42.1 nM |  | 
11 | COc1cccc(-n2nc(C(F)(F)F)cc2CNC(=O)C(C)c2cn(C)c3ccccc23)c1 (stereo not shown) [Example 3, N-((1-(3-methoxyphenyl)-3-(trifluoromethyl)-1H-pyrazol-5-yl)methyl)-2-(1-methyl-1H-indol-3-yl)propanamide] | 49.8 nM |  | 
12 | Cn1cc(CC(=O)NCc2cc(C(F)(F)F)nn2-c2cccc(Cl)c2)c2cc(O)ccc21 [Example 9, N-((1-(3-chlorophenyl)-3-(trifluoromethyl)-1H-pyrazol-5-yl)methyl)-2-(5-hydroxy-1-methyl-1H-indol-3-yl)acetamide] | 0.25 nM |  | 1730 nM
13 | CC(C(=O)NCc1cc(C(C)(C)C)nn1-c1ccccn1)c1cn(C)c2ccc(O)cc12 (stereo not shown) [Example 6, N-((3-tert-butyl-1-(pyridin-2-yl)-1H-pyrazol-5-yl)methyl)-2-(5-hydroxy-1-methyl-1H-indol-3-yl)propanamide] | 56.8 nM |  | 
